Assay results taken from patent publication US11617733B2, “Bicyclic compound and use thereof for medical purposes” (ONO PHARMACEUTICAL CO., LTD., priority 2009, dated 2023).

Legend:
[1] = test system: male rabbit (NewZealandWhite); assay: Aqueous humor protein concentration in rabbit after ocular instillation; format: in vivo; details: ocular instillation 30 μL, 0.1% (w/v), 0-8 hours
Method: (2-2) Assessment of Ocular Stimulating Property and Aqueous Humor Protein Concentration
To one eye of a male rabbit (NewZealandWhite, 2.0 to 3.0 kg) was ocular-instilled 30 μL of the compound of Example 16 (35), the compound of Example 16 (3) and the compound of Example 16 (25) which had been adjusted to 0.1% (w/v) with a base (containing citrate buffer pH 6.5, 0.5% polysorbate 80, 1% propylene glycol, 0.01% benzalkonium chloride), respectively. Thereafter, an aqueous humor in anterior chamber after 0, 1, 2, 4, 6 and 8 hours from ocular instillation was collected, and a protein concentration in the humor was measured. As a comparative compound, the aforementioned methyl ester of the compound of Example 12 described in Patent Literature 2 (i.e. compound of Example 10 described in Patent Literature 2) (hereinafter, abbreviated as Comparative Compound B in some cases) was used.
Regarding any test compound, a dose until a dissolution limit (150 to 1000 μg/mL) was administered and action of each active body was assessed.

male dog (TOYO Beagle) = assay: Intraocular pressure lowering action in dog after ocular instillation; format: in vivo
Method: (2-1) Intraocular Pressure Lowering Action
To one eye of a male dog (TOYO Beagle) which had been sufficiently acclimated in advance was ocular-instilled 30 μL of each test compound (compound of Example 16 (35), compound of Example 16 (3) and compound of Example 16(25)) which had been adjusted with a base (containing citrate buffer pH 6.5, 0.5% polysorbate 80, 1% propylene glycol, 0.01% benzalkonium chloride) to 0.01% (w/v) or 0.001% (w/v), respectively. The other eye was not treated. As a positive control compound, latanoprost which is the known compound was used.
Thereafter, an ocular surface anesthetic (Benoxil eye drops 0.4%, Santen Pharmaceutical Co., Ltd.) was subjected to ocular instillation to locally anesthetize eyes, and an intraocular pressure of each test compound before ocular instillation and after 2, 4, 6, 8, and 24 hours from ocular instillation was measured. An intraocular pressure was measured using a pneumatic applanation flat tonometer (Model 30 Classic, REICHERT). An intraocular pressure lowering rate (%) was calculated by the following equation. Intraocular pressure lowering rate (%)=(intraocular pressure value before ocular instillation−intraocular pressure value at each point)/(intraocular pressure value before ocular instillation)×100 [Mathematic 1]

Row | Compound | Action on protein concentration in aqueous humor (in words) [1] | Intraocular pressure lowering action compared with positive control latanoprost (in words) (male dog (TOYO Beagle))
1 | CCOC(=O)CCC[C@H]1CC[C@@H]2[C@@H](/C=C/[C@@H](O)COc3ccccc3)[C@H](O)C[C@@H]2OC1 [Example 16 (35), Ethyl 4-{(3S, 5aR, 6R, 7R, 8aS)-7-hydroxy-6-[(1E, 3R)-3-hydroxy-4-phenoxy-1-buten-1-yl]octahydro-2H-cyclopenta[b]oxepin-3-yl}butanoate] | no action of raising a protein concentration in an aqueous humor | stronger intraocular pressure lowering action as compared with latanoprost
2 | CC(C)OC(=O)CCC[C@H]1CC[C@@H]2[C@@H](/C=C/[C@@H](O)COc3cccc(Cl)c3)[C@H](O)C[C@@H]2OC1 [Example 16 (3), 2-Propanyl 4-{(3S, 5aR, 6R, 7R, 8aS)-6-[(1E, 3R)-4-(3-chlorophenoxy)-3-hydroxy-1-buten-1-yl]-7-hydroxyoctahydro-2H-cyclopenta[b]oxepin-3-yl}butanoate] | no action of raising a protein concentration in an aqueous humor | stronger intraocular pressure lowering action as compared with latanoprost
3 | CC(C)OC(=O)CCC[C@H]1CC[C@@H]2[C@@H](/C=C/[C@@H](O)COc3cc(F)ccc3F)[C@H](O)C[C@@H]2OC1 [Example 16 (25), 2-Propanyl 4-{(3S, 5aR, 6R, 7R, 8aS)-6-[(1E, 3R)-4-(2,5-difluorophenoxy)-3-hydroxy-1-buten-1-yl]-7-hydroxyoctahydro-2H-cyclopenta[b]oxepin-3-yl}butanoate] | no action of raising a protein concentration in an aqueous humor | stronger intraocular pressure lowering action as compared with latanoprost
